Results as given in patent EP4755891A1, “ARF1 INHIBITOR AND USE THEREOF” (AOBIO PHARMACEUTICAL CO., LTD., priority 2023, dated 2025).
“Also recorded” adds a separate entry of the source.

Assays:
[1] = Plasma stability, rat plasma; assay type: in vitro ADME; conditions: 37°C; for remaining amount in plasma: rat plasma, 2.0 µM
Description: At 37°C, 2.0 µM of the compound was co-incubated with plasma samples from five species (mouse, rat, dog, cynomolgus monkey, human) for 120 minutes. The concentration of the compound in the samples was detected by the liquid chromatography-tandem mass spectrometry (LC-MS/MS) method, and the half-life (T1/2) was calculated.

NF-κB signaling pathway = test: Activation of NF-κB signaling pathway (phosphorylated P65, Western blot); assay type: cell-based, Murine; conditions: CT26 cells; FIG. 6
Description: In this example, Compounds 3 and 9 synthesized in the above preparation examples were tested for their ability to activate the NF-κB signaling pathway, as indicated by an increase of phosphorylated P65. GCA, a known Arf1 inhibitor, was used as a positive control.
In CT26 cells treated with DMSO, GCA, Compound 3, or Compound 9, the relevant protein levels were evaluated by Western blot analysis as previously described (Wang et al., 2020).

Arf1 = molecular target: T1, Arf1 (Homo sapiens, UniProt P84077); test: Inhibition test of Arf1 activation (Active Arf1 pull-down and detection kit, Western blot); assay type: cell-based; conditions: lysate of liver cancer Huh-7 cells; GTP-bound Arf1; FIG. 3
T1 construct: endogenous in cells; host or cells: Huh-7 liver cancer cells (lysate)
Description: In this example, the inhibitory ability of Compounds 3 and 9 synthesized in the above preparation examples on Arf1 activation was tested. The Pierce Active Arf1 Pull-Down and Detection Kit (Thermo Scientific, Cat#16121) was used with the lysate of liver cancer Huh-7 cells to detect the activated Arf1. It is a complete kit that selectively enriches and detects GTP-bound Arf1 GTPase through specific protein interactions with the GGA3 protein-binding domain.

CT26 colon cancer = test: Inhibition of CT26 colon cancer in BALB/c mice (Example 47, 5 mg/kg); assay type: in vivo; conditions: gavaged daily, two consecutive weeks
Description: In this example, the inhibitory effects of Compounds 9, 11-3, 25, 26, 27, and DU102 on colon cancer growth were tested.
Murine CT26 cells were inoculated into the left abdomen of 6-week-old male mice at a dose of 5×10^5 cells per mouse. Approximately 7 days later, the mice were randomly divided into two groups: the control group or the compound treatment group. They were gavaged daily with either the vehicle control (ddH2O or 5% DMSO in corn oil) or 5 mg/kg of Compounds 9, 11-3, 25, 26, or 27 (dissolved in the corresponding vehicle) for two consecutive weeks. Tumor diameters were measured every 2-3 days using a digital caliper (ULINE, Cat^# H-7352), and the tumor volume was calculated using the formula ½ × longitudinal diameter (length) × maximum transverse diameter (width). When the maximum tumor volume reached 2000 mm^3, the mice were euthanized.

T1 sequence (P84077 whole entry): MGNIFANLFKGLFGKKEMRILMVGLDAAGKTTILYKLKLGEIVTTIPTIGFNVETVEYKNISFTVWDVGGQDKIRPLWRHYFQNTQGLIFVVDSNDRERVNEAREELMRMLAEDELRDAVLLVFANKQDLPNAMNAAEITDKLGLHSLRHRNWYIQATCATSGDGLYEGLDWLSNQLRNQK

## Cc1csc2ncnc(Nc3ccc4c(c3)ncn4C)c12 [Compound 9, 5-Methyl-N-(1-methyl-1H-benzo[d]imidazol-5-yl)thieno[2,3-d]pyrimidin-4-amine]
[1]; plasma, printed in the Rat row
  half-life at 2 µM: > 4.82 h
[1]; time point 0 min
  remaining amount in plasma: 100.0%
[1]; time point 10 min
  remaining amount in plasma: 102.1%
[1]; time point 30 min
  remaining amount in plasma: 93.5%
[1]; time point 60 min
  remaining amount in plasma: 99.3%
[1]; time point 120 min
  remaining amount in plasma: 93.2%
NF-κB signaling pathway
  phosphorylation level of P65: increase the phosphorylation level of P65
Arf1
  inhibition of Arf1 activation: effectively inhibit the activation of Arf1; also recorded: effective inhibitors
CT26 colon cancer; FIG. 9A
  size of murine colon cancer: size of murine colon cancer inhibited
CT26 colon cancer; FIG. 9B
  weight of murine colon cancer: weight of murine colon cancer reduced significantly
CT26 colon cancer; FIG. 9 and FIG. 10
  inhibition of CT26 colon cancer: effectively inhibit CT26 colon cancer
